System: E. coli MG1655
Assay: LC sensor relative permittivity growth monitoring (AST), ampicillin sensitive strain
Type: cell-based
Details: 100 μg/mL ampicillin at the time of inoculation, cultured for 4 hours; observed within 30 mins; FIG. 12

`CC1(C)S[C@@H]2[C@H](NC(=O)[C@H](N)c3ccccc3)C(=O)N2[C@H]1C(=O)O` [ampicillin] was tested, and the “growth in presence of ampicillin (relative permittivity)” value was “inhibited”.
